Where two headings read alike, the source gives them in different places.
System: Escherichia coli (ATCC25922) or Staphylococcus aureus (ATCC25923)
Assay: Antibacterial MIC, microdilution method in Mueller-Hinton medium
Assay type: cell-based
Details: Escherichia coli, 18 h, read-out: Potency (MIC)
Outline: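 Read after 18 h incubation at 35° C, MIC is the lowest compound level that blocked growth. Compounds were tested in duplicate over 64–0.5 μg/ml two-fold dilutions using Mueller-Hinton microdilution per NCCLS standard.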

[1] = MIC in E. coli or S. aureus, two-fold serial dilutions 64 to 0.5 μg/ml in duplicate, 18 hours of incubation at 35° C.

SMILES: Cl.O=C(Oc1ccccc1)c1ccc(Nc2cc(N3CCCCC3)cc(N3CCCCC3)c2)cc1O [4-[4-((3S,5R)-3,5-Diamino-piperidin-1-yl)-6-((R)-3-hydroxy-piperidin-1-yl)-[1,3,5]triazin-2-ylamino]-2-hydroxy-benzoicacidphhenylester]
- MIC [1]: < 64 mg/L

SMILES: CCCC(=O)Nc1ccc(Nc2nc(N3C[C@H](N)C[C@H](N)C3)nc(N3C[C@H](N)C[C@H](N)C3)n2)cc1O [N-(4-butyrylamino-3-hydroxy-phenyl)-4,6-Bis-((3R,5S)-3,5-diamino-piperidin-1-yl)-[1,3,5]triazine-2-amine]
- MIC: > 64 mg/L

SMILES: Cc1cc(=O)oc2cc(Nc3nc(N4C[C@H](N)C[C@H](N)C4)nc(N4CCC[C@@H](O)C4)n3)ccc12 [7-[4-((3R,5S)-3,5-Diamino-piperidin-1-yl)-6-((R)-3-hydroxy-piperidin-1-yl)-[1,3,5]triazin-2-ylamino]-4-methyl-chromen-2-one]
- MIC [1]: < 64 mg/L

SMILES: N[C@@H]1C[C@H](N)CN(c2nc(Nc3ccc(NC(=O)c4ccc(F)cc4O)cc3)nc(N3C[C@H](N)C[C@H](N)C3)n2)C1 [N-[4-(4-fluoro-2-hydroxy-benzoylamino)-phenyl]-4,6-Bis-((3R,5S)-3,5-diamino-piperidin-1-yl)-[1,3,5]triazine-2-amine]
- MIC: < 16 mg/L

SMILES: N[C@@H]1C[C@H](N)CN(c2nc(Nc3ccc4c(c3)-c3ccccc3C4=O)nc(N3CCC[C@@H](O)C3)n2)C1 [3-[4-((3S,5R)-3,5-Diamino-piperidin-1-yl)-6-((R)-3-hydroxy-piperidin-1-yl)-[1,3,5]triazin-2-ylamino]-fluoren-9-one]
- MIC: < 64 mg/L

SMILES: N[C@@H]1C[C@H](N)CN(c2nc(Nc3cccc(I)c3)nc(N3C[C@H](N)C[C@H](N)C3)n2)C1 [N-(3-Iodo-phenyl)-4,6-Bis-((3R,5S)-3,5-diamino-piperidin-1-yl)-[1,3,5]triazine-2-amine]
- MIC: < 64 mg/L

SMILES: N[C@@H]1C[C@H](N)CN(c2nc(Nc3ccc(NC(=O)c4ccc(Cl)cc4)c(O)c3)nc(N3C[C@H](N)C[C@H](N)C3)n2)C1 [N-[4-(4-chloro-benzoylamino)-3-hydroxy-phenyl]-4,6-Bis-((3R,5S)-3,5-diamino-piperidin-1-yl)-[1,3,5]triazine-2-amine]
- MIC: < 16 mg/L

SMILES: Cc1cc(C)cc(Nc2nc(N3C[C@H](N)C[C@H](N)C3)nc(N3C[C@H](N)C[C@H](N)C3)n2)c1 [N-(3,5-dimethyl-phenyl)-4,6-Bis-((3R,5S)-3,5-diamino-piperidin-1-yl)-[1,3,5]triazine-2-amine]
- MIC: < 64 mg/L

SMILES: Cc1ccc(C(=O)Nc2ccc(Nc3nc(N4CCN(c5ccncc5)CC4)nc(N4C[C@H](N)C[C@H](N)C4)n3)cc2O)cc1 [N-{4-[4-((3R,5S)-3,5-Diamino-piperidin-1-yl)-6-(4-pyridin-4-yl-piperazin-1-yl)-[1,3,5]triazin-2-ylamino]-2-hydroxy-phenyl}-4-methyl-benzamide]
- MIC [1]: < 64 mg/L

SMILES: N[C@@H]1C[C@H](N)CN(c2nc(Nc3cc(Cl)c(NC(=O)c4ccc(Cl)cc4O)c(Cl)c3)nc(N3C[C@H](N)C[C@H](N)C3)n2)C1 [N-[3,5-dichloro-4-(4-chloro-2-hydroxy-benzoylamino)-phenyl]-4,6-Bis-((3R,5S)-3,5-diamino-piperidin-1-yl)-[1,3,5]triazine-2-amine]
- MIC: < 16 mg/L

SMILES: N[C@@H]1C[C@H](N)CN(c2nc(Nc3ccccc3O)nc(N3C[C@H](N)C[C@H](N)C3)n2)C1 [N-(2-hydroxy-phenyl)-4,6-Bis-((3R,5S)-3,5-diamino-piperidin-1-yl)-[1,3,5]triazine-2-amine]
- MIC [1]: > 64 mg/L

SMILES: CCCCCCCCCC(=O)Nc1ccc(S(=O)(=O)Nc2ccc(Nc3nc(N4C[C@H](N)C[C@H](N)C4)nc(N4C[C@H](N)C[C@H](N)C4)n3)cc2O)cc1 [N-[4-(4-decanoylamino-benzenesulfonylamino)-3-hydroxy-phenyl]-4,6-Bis-((3R,5S)-3,5-diamino-piperidin-1-yl)-[1,3,5]triazine-2-amine]
- MIC: < 16 mg/L

SMILES: N[C@@H]1C[C@H](N)CN(c2nc(Nc3ccc(O)c4ncccc34)nc(N3C[C@H](N)C[C@H](N)C3)n2)C1 [N-(8-hydroxy-quinolin-5-yl)-4,6-Bis-((3R,5S)-3,5-diamino-piperidin-1-yl)-[1,3,5]triazine-2-amine]
- MIC [1]: < 64 mg/L
- MIC: < 16 mg/L

SMILES: CC(=O)c1ccc(Nc2nc(N3C[C@H](N)C[C@H](N)C3)nc(N3C[C@H](O)C[C@@H](O)C3)n2)cc1 [1-{4-[4-((3R,5S)-3,5-Diamino-piperidin-1-yl)-6-((3R,5R)-3,5-dihydroxy-piperidin-1-yl)-[1,3,5]triazin-2-ylamino]-phenyl}-ethanone]
- MIC [1]: > 64 mg/L

SMILES: CNC(=N)Nc1ccc(Nc2nc(C3CCCCC3)nc(N3CCCCC3)n2)cc1.Cl [N-[4-(N-methyl-quanidino)-phenyl]-4,6-Bis-((3R,5S)-3,5-diamino-piperidin-1-yl)-[1,3,5]triazine-2-amine]
- MIC [1]: > 64 mg/L

SMILES: N[C@@H]1C[C@H](N)CN(c2nc(Nc3ccc(NC(=O)c4cccc(O)c4O)cc3)nc(N3C[C@H](N)C[C@H](N)C3)n2)C1 [N-[4-(2,3-dihydroxy-benzoylamino)-phenyl]-4,6-Bis-((3R,5S)-3,5-diamino-piperidin-1-yl)-[1,3,5]triazine-2-amine]
- MIC: < 16 mg/L

SMILES: Cl.NC(=O)CNc1nc(N2C[C@H](N)C[C@H](N)C2)nc(N2C[C@H](N)C[C@H](N)C2)n1 [N-carbamoylmethyl-4,6-Bis-((3R,5S)-3,5-diamino-piperidin-1-yl)-[1,3,5]triazine-2-amine]
- MIC [1]: > 64 mg/L

SMILES: NC[C@@H]1C[C@H](CN)CN(c2nc(Nc3ccc(NC(=O)c4ccc(Cl)cc4)c(O)c3)nc(N3C[C@H](N)C[C@H](N)C3)n2)C1 [N-{4-[4-((3R,5S)-3,5-Bis-(aminomethyl)-piperidin-1-yl)-6-((3R,5S)-3,5-diamino-piperidin-1-yl)-[1,3,5]triazin-2-ylamino]-2-hydroxy-phenyl}-4-chloro-benzamide]
- MIC: < 16 mg/L

SMILES: Cl.N[C@@H]1C[C@H](N)CN(c2nc(Nc3ccccc3F)nc(N3C[C@H](N)C[C@H](N)C3)n2)C1 [N-(2-fluoro-phenyl)-4,6-Bis-((3R,5S)-3,5-diamino-piperidin-1-yl)-[1,3,5]triazine-2-amine]
- MIC [1]: > 64 mg/L

SMILES: Cc1nc(NS(=O)(=O)c2ccc(Nc3nc(N4C[C@H](N)C[C@H](N)C4)nc(N4C[C@H](N)C[C@H](N)C4)n3)cc2)oc1C [N-[4-(4,5-dimethyl-oxazol-2-ylsulfamoyl)-phenyl]-4,6-Bis-((3R,5S)-3,5-diamino-piperidin-1-yl)-[1,3,5]triazin-2-amine]
- MIC: > 64 mg/L

SMILES: Cc1ccc(C(=O)Nc2ccc(Nc3nc(N4C[C@H](N)C[C@H](N)C4)nc(N4C[C@H](N)C[C@H](N)C4)n3)cc2)c(O)c1 [N-[4-(2-hydroxy-4-methyl-benzoylamino)-phenyl]-4,6-Bis-((3R,5S)-3,5-diamino-piperidin-1-yl)-[1,3,5]triazine-2-amine]
- MIC: < 16 mg/L

SMILES: Cc1cc(Nc2nc(N3CCCCC3)nc(N3CCCCC3)n2)ccc1N1C(=O)c2ccc(Cl)cc2C1=O.Cl [N-[4-(5-chloro-1,3-dioxo-1,3-dihydro-isoindol-22-yl)-3-methyl-phenyl]-4,6-Bis-((3R,5S)-3,5-diamino-piperidin-1-yl)-[1,3,5]triazine-2-amine]
- MIC [1]: < 64 mg/L

SMILES: Cl.c1ccc(Nc2ccccc2Nc2nc(C3CCCCC3)nc(N3CCCCC3)n2)cc1 [N-(2-pohenylamino-phenyl)-4,6-Bis-((3R,5S)-3,5-diamino-piperidin-1-yl)-[1,3,5]triazine-2-amine]
- MIC [1]: > 64 mg/L

SMILES: Cl.O=C(Nc1ccc(Nc2nc(N3CCCCC3)nc(N3CCCCC3)n2)cc1Cl)c1ccc(F)c(F)c1O [N-[3-chloro-4-(3,4-difluoro-2-hydroxy-benzoylamino)-pheny]-4,6-Bis-((3R,5S)-3,5-diamino-piperidin-1-yl)-[1,3,5]triazine-2-ammine]
- MIC [1]: < 16 mg/L

SMILES: N[C@@H]1C[C@H](N)CN(c2nc(Nc3ccc(NC(=O)c4ccc(C(F)(F)F)nc4O)c(O)c3)nc(N3C[C@H](N)C[C@H](N)C3)n2)C1 [N-{3-hydroxy-4-[(2-hydroxy-6-trifluoromethyl-pyridine-3-carbonyl)-amino]-phenyl}-4,6-Bis-((3R,5S)-3,5-diamino-piperidin-1-yl)-[1,3,5]triazine-2-amine]
- MIC: < 64 mg/L

SMILES: NC[C@@H]1C[C@H](N)CN1c1nc(Nc2ccc3c(c2)C(=O)c2ccccc2-3)nc(N2C[C@H](N)C[C@H](N)C2)n1 [2-[4-((2S,4S)-4-Amino-2-aminomethyl-pyrrolidin-1-yl)-6-((3R,5S)-3,5-diamino-piperidin-1-yl)-[1,3,5]triazin-2-ylamino]-fluoren-9-one]
- MIC: > 64 mg/L

SMILES: N[C@@H]1C[C@H](N)CN(c2nc(Nc3ccc(NC(=O)c4ccc(Cl)cc4O)c(C(F)(F)F)c3)nc(N3C[C@H](N)C[C@H](N)C3)n2)C1 [N-[4-(4-chloro-2-hydroxy-benzoylamino)-3-trifluoromethyl-phenyl]-4,6-Bis-((3R,5S)-3,5-diamino-piperidin-1-yl)-[1,3,5]triazine-2-amine]
- MIC: < 16 mg/L

SMILES: COc1ccc(Nc2ccc(NC(=O)CC(=O)c3ccc(Nc4nc(N5C[C@H](N)C[C@H](N)C5)nc(N5C[C@H](N)C[C@H](N)C5)n4)cc3)cc2)cc1 [N-(4-{2-[4-(4-methoxy-phenylamino)-phenylcarbamoyl]-acetyl}-phenyl)-4,6-Bis-((3R,5S)-3,5-diamino-piperidin-1-yl)-[1,3,5]triazine-2-amine]
- MIC [1]: < 16 mg/L

SMILES: Cc1ccc(S(=O)(=O)N(Cc2ccccc2)c2ccc(Nc3nc(N4C[C@H](N)C[C@H](N)C4)nc(N4C[C@H](N)C[C@H](N)C4)n3)cc2O)cc1 [N-{4-[benzyl-(toluene-4-sulfonyl)-amino]-3-hydroxy-phenyl}-4,6-Bis-((3R,5S)-3,5-diamino-piperidin-1-yl)-[1,3,5]triazine-2-amine]
- MIC: < 16 mg/L

SMILES: COc1cc(NC(=O)c2ccc(Nc3nc(N4CCCCC4)nc(N4CCCCC4)n3)cc2O)cc(OC)c1OC.Cl [N-[3-hydroxy-4-(3,4,5-trimethoxy-phenylcarbamoyl)-phenyl]-4,,6-Bis-((3R,5S)-33,5-diamino-piperidin-1-yl)-[1,3,5]triazine-2-amine]
- MIC [1]: < 64 mg/L

Reference: patent US7223759B2, “Antibacterial 3,5-diaminopiperidine-substituted aromatic and heteroaromatic compounds” (Anadys Pharmaceuticals, Inc., priority 2003, dated 2007)
